1 compound from patent publication US8501237B2, “Formulations of water insoluble or poorly water soluble drugs in lipidated glycosaminoglycan particles and their use for diagnostics and therapy” (Tel-Aviv University Future Technology Development L.P., priority 2004, dated 2013) can be followed below.

The test system of one data set is D122 cells. In words: Cytotoxicity in vitro (MTT or SRB), D122. It counts as cell-based. Conditions: Mus musculus. How it is done:
(§1) Cytotoxicity of paclitaxel and of gagomer-encapsulated paclitaxel was evaluated over a matrix of drug-gagomer formulations (see Examples 1, 2 and 3), cell lines and treatment protocols, for the drug concentration range spanning from 1 nM to 100 μM.
(§2) Twenty four hours prior to an experiment, cells of the desired line were seeded onto 96-well multiwell culture plates at densities in the range of 5×10^3 cells/well. The experiments were initiated on sub-confluent monolayers. Two protocols were used:
(§3) (I) Short protocol. The cells were incubated with the treatment media for 4 hours, at the end of which the treatment media was aspirated, the cells washed and incubated for 44 hours in drug-free serum-supplemented cell growth media. Termination was 48 hours from start.
(§4) (II) Long protocol: the cells were incubated in the treatment media for 48 hours. Upon termination, in either protocol, cell viability was determined in each well using either the MTT or the SRB assay method.
(§5) The rationale for the two protocols, the long and the short, is as follows: The long protocol is the traditional one used for in vitro comparisons of cytotoxicity among different drug formulations. The cells are incubated with the treatment formulations for periods usually within the 24-72 hour time span, and all formulations are incubated for the same time. […]

A further data set relates to PANC-1 cells. As to the kind of experiment: Cytotoxicity in vitro (MTT or SRB), PANC-1. The format is cell-based. To be noted: Homo sapiens. How it is done:
as §1, §2, §3, §4, §5

The subject of a further data set is B16F10.9 cultures. As to the kind of experiment: Cytotoxicity before and after sterilization (autoclaving) in B16F10.9 cultures. It counts as cell-based. To be noted: Mus musculus. As for the experimental part: Aqueous suspensions of TX-GAG particles were prepared according to the scheme of FIG. 7, up to and including step 5. Aqueous suspensions of paclitaxel alone (i.e., free paclitaxel) were also prepared. Samples were set aside, from both the TX-GAG and the free paclitaxel, and the remainder of each system was subjected to the following sterilization process: 12 minutes of autoclaving at 120° C. A critical question of whether this sterilization process is feasible for the TX-GAG formulations, is retention of drug activity. Therefore, the original samples set aside prior to the sterilization process, as well as the samples that underwent the process, were tested for their cytotoxicity, in B16F10.9 cultures, as described in Example 7.

Another data set relates to C-26 cells. In words: Cytotoxicity in vitro (MTT or SRB), C-26. The format is cell-based. To be noted: Mus musculus. How it is done: as §1, §2, §3, §4, §5
A further data set deals with SNU-251 cells. In words: Cytotoxicity in vitro (MTT or SRB), SNU-251. Conditions: Homo sapiens. The format is cell-based. How it is done: as §1, §2, §3, §4, §5
A further data set concerns B16F10.9 cells. In words: Cytotoxicity in vitro (MTT or SRB), B16F10.9. It counts as cell-based, mouse. As for the experimental part: as §1, §2, §3, §4, §5
Where [1] appears, read: 4 hours treatment, then 44 hours drug-free media, read-out: IC50 short protocol.
The mark [2] stands for this setting: 48 hours incubation with treatment media, read-out: IC50 long protocol.

Where two headings read alike, the source gives them in different places.

One may read the IC50 as the concentration at which inhibition is half-maximal. With `CC(=O)O[C@H]1C(=O)[C@@]2(C)[C@H]([C@H](OC(=O)c3ccccc3)[C@]3(O)C[C@H](OC(=O)[C@H](O)[C@@H](NC(=O)c4ccccc4)c4ccccc4)C(C)=C1C3(C)C)[C@]1(OC(C)=O)CO[C@@H]1C[C@@H]2O` [Free Paclitaxel, paclitaxel], the 50% inhibitory concentration (IC50) with D122 cells (setting [1]) is 900 nM; with D122 cells (setting [2]), 250 nM; in the data set on PANC-1 cells (setting [1]), 300 nM; with PANC-1 cells (setting [2]), 20 nM; in the data set with B16F10.9 cultures (after sterilization: 12 minutes of autoclaving at 120° C. (FIG. 10)) it was roughly 300 nM; with B16F10.9 cultures (before sterilization (FIG. 10)), roughly 300 nM. Besides, the IC50 with C-26 cells (C26, 4 hours treatment, then 44 hours drug-free media, read-out: IC50 short protocol) was 3000 nM; with C-26 cells (C26, 48 hours incubation with treatment media, read-out: IC50 long protocol) it was 3500 nM; in the data set with SNU-251 cells (setting [1]) it was 600 nM; in the data set on SNU-251 cells (setting [2]), 250 nM; with B16F10.9 cells (Mus musculus, B16F10.9, ethanol as the lipid solvent, 4 hours treatment, then 44 hours drug-free media (Table 6), read-out: IC50 short protocol), 1800 nM. Besides, the “cytotoxic activity after heating of ethanolic solutions” value in the data set on B16F10.9 cells (ethanolic paclitaxel solutions heated at 40-70° C., same cytotoxicity assay) is given as “did not impair the drug's cytotoxic activity”.
